Laboratory results taken from ChEMBL document CHEMBL1255314, “Outbreak of Acinetobacter baumannii with chromosomally encoded VIM-1 undetectable by imipenem-EDTA synergy tests” (2008).
≈ marks a conversion by molar mass, not a printed value.

Experiments:
[1] = tested on: Acinetobacter baumannii; experiment: Antimicrobial activity against Acinetobacter baumannii isolates by agar dilution method; type: functional
[2] = target: BlaVIM-1 (Escherichia coli) (UniProt Q8GDC1); experiment: Inhibition of VIM-1 activity in Escherichia coli extracts at 100 uM
[3] = target: Metallo-beta-lactamase (Acinetobacter baumannii) (UniProt Q4F6N3); experiment: Activity of Acinetobacter baumannii VIM-1 assessed as compound hydrolysis
[4] = target: Metallo-beta-lactamase (Acinetobacter baumannii) (UniProt Q4F6N3); experiment: Activity of Acinetobacter baumannii isolate TZ42/166 VIM-1 assessed as compound hydrolysis
[5] = target: Metallo-beta-lactamase (Acinetobacter baumannii) (UniProt Q4F6N3); experiment: Activity of Acinetobacter baumannii isolate TZ42/166 VIM-1 assessed as compound hydrolysis in presence of EDTA

Structure (SMILES) | MIC [1] | further results
CO/N=C(\C(=O)N[C@@H]1C(=O)N2C(C(=O)[O-])=C(C[N+]3(C)CCCC3)CS[C@H]12)c1csc(N)n1 [CEFEPIME] | > 64 µg/mL | 
C[C@H]1[C@H](NC(=O)/C(=N\OC(C)(C)C(=O)O)c2csc(N)n2)C(=O)N1S(=O)(=O)O [AZTREONAM] | > 64 µg/mL | 
CO/N=C(\C(=O)N[C@@H]1C(=O)N2C(C(=O)O)=C(COC(C)=O)CS[C@H]12)c1csc(N)n1 [CEFOTAXIME] | > 64 µg/mL | 
CC(C)(O/N=C(\C(=O)N[C@@H]1C(=O)N2C(C(=O)[O-])=C(C[n+]3ccccc3)CS[C@H]12)c1csc(N)n1)C(=O)O [CEFTAZIDIME] | > 64 µg/mL | 
C[C@@H](O)[C@H]1C(=O)N2C(C(=O)O)=C(SCCNC=N)C[C@H]12 [IMIPENEM ANHYDROUS] | 16 µg/mL (≈ 53.4 µM) | inhibition [2]: > 95%; Activity [3]: 28 U; Activity [4]: 90 U; Activity [5]: 1.5 U
C[C@@H](O)[C@H]1C(=O)N2C(C(=O)O)=C(S[C@@H]3CN[C@H](C(=O)N(C)C)C3)[C@H](C)[C@H]12 [MEROPENEM] | 16 µg/mL (≈ 41.7 µM) | 
